{"source": "paper PMC11001197", "about": "“The PII protein interacts with the Amt ammonium transport and modulates nitrate/nitrite assimilation in mycobacteria” (Frontiers in Microbiology, 2024)", "target": "M. tb PII (GlnB) (Mycobacterium tuberculosis, UniProt P9WN31)", "sequence (P9WQ65 417-477)": "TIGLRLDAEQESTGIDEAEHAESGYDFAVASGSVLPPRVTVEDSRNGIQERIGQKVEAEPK", "sequence (P9WN31 whole entry)": "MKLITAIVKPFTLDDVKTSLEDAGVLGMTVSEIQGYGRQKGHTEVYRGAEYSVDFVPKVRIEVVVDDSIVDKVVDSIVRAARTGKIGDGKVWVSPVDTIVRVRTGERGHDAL", "data": [{"smiles": "O=C(O)CCC(=O)C(=O)O", "note": "[2-oxoglutarate]", "values": [{"measurement": "Ni-NTA pull-down of AmtCTR by His-PII, SDS-PAGE", "result": "PII is able to interact with AmtCTR being negatively modulated by 2-OG"}]}]}
